{"source": "patent US7605280B2", "about": "“Anthraquinone and its derivatives” (Biostatus Limited, priority 1998, dated 2009)", "key": {"viable HL60 cells": {"test_system": "viable HL60 cells", "assay": "Flow cytometric analysis of DRAQ5 accumulation (Cytometers A and B)", "assay_type": "cell-based, human", "settings": "Cytometer B, low power 633 nm, 1 h exposure", "description": "HL60 (human promyelocytic-leukaemia cell line) and SUD4 (human B cell lymphoma cell line) were grown as suspension cultures-in-RMPI medium with 10% foetal calf serum, 1 mM glutamine and antibiotics and incubated at 37° C. in an atmosphere of 5% CO2 in air. For flow cytometry experiments, asynchronously growing suspension cultures were diluted to 2.5-4>10^5 cells/ml at 2 h prior to drug treatment. Cell cycle-perturbed populations were obtained by treating SUD4 cells with the drug etoposide (VP-16-213) at 0.25 μM for 18h. Cells were treated with DRAQ5 and FDA as described above. Cell concentrations were determined using a Coulter counter and cell cycle distribution determined using an algorithm for the normal distibution of fluorescence intensity profiles for fluorochrome stained G1 and G2 cells.\nCells were analysed using one of four flow cytometers according to the excitation requirements. • Cytometer A: Single beam high power 647 nm krypton laser excitation: The system was a custom-built cytometer and incorporated an Innova 3000K krypton laser (Coherent Corp., Palo Alto, Calif., USA) tuned to the 647 nm line. Forward light scatter, 90° light scatter and fluorescence emissions were collected for 1×10^4 cells using the 90° light scatter parameter as the master signal. […] Forward and 90° light scatter were analysed for the identification of cell debris. […]"}, "Solubility": {"assay": "Solubility", "assay_type": "physicochemical"}}, "data": [{"smiles": "CN(C)CCNc1ccc(O)c2c1C(=O)c1c(O)ccc(NCCN(C)C)c1C2=O", "note": "[DRAQ5]", "values": [{"measurement": "lower end of linear dose-response of 633 nm derived DRAQ5 signal", "setting": "viable HL60 cells", "value": "approximately 2.5 μM"}, {"measurement": "solubility", "setting": "Solubility", "value": "soluble in biologically compatible solvents including water"}]}]}
